As a reminder, the IC50 is the midpoint of a concentration-inhibition curve.

Where two headings read alike, the source gives them in different places.

25 compounds from patent EP2951180B1, “2,6,7,8 SUBSTITUTED PURINES AS HDM2 INHIBITORS” (Merck Sharp & Dohme Corp., priority 2013, dated 2014) can be followed below.

The test concerns the target T1, HDM2 (Homo sapiens, UniProt Q00987).
T1 construct: Thioredoxin (N); made in house; host or cells: E. coli strain BL21(DE3)Rosetta
The test can be described thus: HDM2 FRET assay (inhibition of binding of FITC labeled p53-pocket peptide to HDM2). Conditions: for IC50: read-out: FRET IC50. In outline: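 Compounds were tested in 10-point serial dilution against 0.5 nM recombinant HDM2 binding 3 nM fluorescein-labeled p53-pocket peptide. Detection used 0.25 nM terbium cryptate anti-6xHis antibody in PBS buffer containing 0.01% BSA and 0.01% Tween-20.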

Setting [1] is: 0.5 nM HDM2 (residues 17 to 125), 3nM peptide, two hour incubation at room temperature.

T1 sequence (Q00987 17-125): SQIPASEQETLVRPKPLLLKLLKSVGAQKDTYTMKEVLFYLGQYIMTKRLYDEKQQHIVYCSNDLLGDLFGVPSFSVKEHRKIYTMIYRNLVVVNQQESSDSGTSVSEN

With `COC1(C)CN(c2nc3nc(-c4noc(=O)[nH]4)nc(N[C@H](C)C4CCC4)c3n2C[C@H]2CC[C@H](C)CC2)C1` [Example 11.102, 3-(6-{[(1R)-1-cyclobutylethyl]amino}-8-(3-methoxy-3-methylazetidin-1-yl)-7-[(trans-4-methylcyclohexyl)methyl]-7H-purin-2-yl)-1,2,4-oxadiazol-5(2H)-one], the IC50 (Table 11) amounted to 20.8 nM.

As to `CC(C)c1cc(-c2nc3nc(C(=O)O)nc(N[C@H](C)C4CCC4)c3n2C[C@H]2CC[C@H](C)CC2)[nH]c(=O)c1` [Example 15.3, 6-(((R)-1-cyclobutylethyl)amino)-8-(4-isopropyl-6-oxo-1,6-dihydropyridin-2-yl)-7-((trans-4-methylcyclohexyl)methyl)-7H-purine-2-carboxylic acid], the concentration for half-maximal inhibition (IC50) under setting [1] worked out at 15.5 nM.

On to `CC(CN1CCCC1)CN(C)c1nc2nc(-c3noc(=O)[nH]3)nc(N[C@H](C)C3CCC3)c2n1Cc1ccc(C(F)(F)F)cc1` (stereo partly drawn) [Example 9.104, 3-(6-{[(1R)-1-cyclobutylethyl]amino}-8-[methyl(2-methyl-3-pyrrolidin-1-ylpropyl)amino]-7-[4-(trifluoromethyl)benzyl]-7H-purin-2-yl)-1,2,4-oxadiazol-5(4H)-one], for which the IC50 (Table 9) was 63.2 nM.

For the compound `C[C@@H](Nc1nc(-c2n[nH]c(=O)o2)nc2nc(C3CCCCC3)n(C[C@H]3CC[C@H](C)CC3)c12)C1CCC1` [Example 21.40, 5-(6-{[(1R)-1-cyclobutylethyl]amino}-8-cyclohexyl-7-[(trans-4-methylcyclohexyl)methyl]-7H-purin-2-yl)-1,3,4-oxadiazol-2(3H)-one], the IC50 (Table 21) turned out to be 4.29 nM.

For `C[C@H]1CC[C@H](Cn2c(N3CCOC[C@H]3c3ccccc3)nc3nc(-c4noc(=O)[nH]4)nc(-c4cc(Cl)cnc4F)c32)CC1` [Example 16.108, 3-{6-(5-chloro-2-fluoropyridin-3-yl)-7-[(trans-4-methylcyclohexyl)methyl]-8-[(3R)-3-phenylmorpholin-4-yl]-7H-purin-2-yl}-1,2,4-oxadiazol-5(4H)-one], the IC50 under setting [1] amounted to 1.16 nM.

`C[C@@H](Nc1nc(-c2noc(=O)[nH]2)nc2nc(Sc3ccccc3)n(C[C@H]3CC[C@H](C)CC3)c12)C1CCC1` [Example 19.1, 3-[6-{[(1R)-1-cyclobutylethyl]amino}-7-[(trans-4-methylcyclohexyl)methyl]-8-(phenylsulfanyl)-7H-purin-2-yl]-1,2,4-oxadiazol-5(4H)-one]: the IC50 (Table 19) came to 0.763 nM.

On to `C[C@@H](Nc1nc(-c2n[nH]c(=O)o2)nc2nc(N3CCOC[C@H]3c3ccccc3)n(C[C@H]3CC[C@H](C)CC3)c12)C1CCC1` [Example 11.55, 5-(6-{[(1R)-1-cyclobutylethyl]amino}-7-[(trans-4-methylcyclohexyl)methyl]-8-[(3R)-3-phenylmorpholin-4-yl]-7H-purin-2-yl)-1,3,4-oxadiazol-2(3H)-one], for which the IC50 (Table 11) was found to be 2.14 nM.

Consider `Cc1cccc(-c2nc3nc(C(=O)O)nc(N(C)CC(C)C)c3n2Cc2ccc(C(F)(F)F)cc2)c1` [Example 6.72, 6-[methyl(2-methylpropyl)amino]-8-(3-methylphenyl)-7-[4-(trifluoromethyl)benzyl]-7H-purine-2-carboxylic acid], for which the inhibition at 1 µM (read-out: inh. at 1000 nM (FRET)) was determined as 40%.

Turning to `C#CCC1CN(c2nc3nc(C(=O)O)nc(N[C@H](C)C4CCC4)c3n2Cc2ccc(C(F)(F)F)cc2)CCO1` (stereo partly drawn) [Example 9.26, 6-{[(1R)-1-cyclobutylethyl]amino}-8-(2-prop-2-yn-1-ylmorpholin-4-yl)-7-[4-(trifluoromethyl)benzyl]-7H-purine-2-carboxylic acid], the IC50 (Table 9) was 34.2 nM.

Consider `C[C@@H](Nc1nc(C(=O)O)nc2nc(N3CCCC[C@@H]3c3ccccc3)n(Cc3ccc(C(F)(F)F)cc3)c12)C1CCC1` [Example 9.62, 6-{[(1R)-1-cyclobutylethyl]amino}-8-[(2R)-2-phenylpiperidin-1-yl]-7-[4-(trifluoromethyl)benzyl]-7H-purine-2-carboxylic acid], for which the IC50 (Table 9) turned out to be 17.3 nM.

As for `CC(c1ccccn1)c1nc2nc(-c3noc(=O)[nH]3)nc(N[C@H](C)C3CCC3)c2n1C[C@H]1CC[C@H](C)CC1` (stereo partly drawn) [Example 22.71, 3-[6-{[(1R)-1-cyclobutylethyl]amino}-7-[(trans-4-methylcyclohexyl)methyl] -8-(1-pyridin-2-ylethyl)-7H-purin-2-yl]-1,2,4-oxadiazol-5(4H)-one], where the note is “Table 22”, the concentration for half-maximal inhibition (IC50) turned out to be 6.49 nM.

For `Cc1cccc(-c2nc3ncnc(NC(CC(=O)O)C4CC4)c3n2Cc2ccc(C(F)(F)F)cc2)c1` (stereo not shown) [Example 6.18, 3-cyclopropyl-3-({8-(3-methylphenyl)-7-[4-(trifluoromethyl)benzyl]-7H-purin-6-yl}amino)propanoic acid], for the setting “Table 6”, the IC50 turned out to be 5190 nM.

As to `Cc1cccc(-c2nc3nc(C(N)=O)nc(N[C@H](C)C4CCC4)c3n2Cc2ccc(C(F)(F)F)cc2)c1` [Example 12.29, 6-{[(1R)-1-cyclobutylethyl]amino} -8-(3-methylphenyl)-7-[4-(trifluoromethyl)benzyl]-7H-purine-2-carboxamide], the IC50 under setting [1] stood at 1410 nM.

In the case of `C[C@@H](Nc1nc(-c2noc(=O)[nH]2)nc2nc(N3CCOC4CCCC43)n(C[C@H]3CC[C@H](C)CC3)c12)C1CCC1` (single isomer, unassigned) [Example 11.133], the half-maximal inhibitory concentration (IC50) (Table 11) was 0.344 nM.

Regarding `C[C@@H](Nc1nc(C(=O)O)nc2nc(N3CCCCC3Cc3ccc(F)cc3)n(C[C@H]3CC[C@H](C)CC3)c12)C1CCC1` (stereo partly drawn) [Example 11.56, 6-{[(1R)-1-cyclobutylethyl]amino}-8-[2-(4-fluorobenzyl)piperidin-1-yl]-7-[(trans-4-methylcyclohexyl)methyl]-7H-purine-2-carboxylic acid], the 50% inhibitory concentration (IC50) (Table 11) worked out at 11.6 nM.

For the compound `Cc1cccc(-c2nc(-c3noc(=O)[nH]3)nc3nc(N4CCOC[C@H]4c4ccccc4)n(C[C@H]4CC[C@H](C)CC4)c23)c1` [Example 16.17, 3-{7-[(trans-4-methylcyclohexyl)methyl]-6-(3-methylphenyl)-8-[(3R)-3-phenylmorpholin-4-yl]-7H-purin-2-yl}-1,2,4-oxadiazol-5(4H)-one], the IC50 under setting [1] came out at 3.96 nM.

Regarding `CC[C@@H](c1ccccc1)N(C)c1nc2nc(C(=O)O)nc(N[C@H](C)C3CCC3)c2n1Cc1ccc(C(F)(F)F)cc1` [Example 9.58, 6-{[(1R)-1-cyclobutylethyl]amino}-8-{methyl[(1S)-1-phenylpropyl]amino}-7-[4-(trifluoromethyl)benzyl]-7H-purine-2-carboxylic acid], the IC50 (Table 9) came out at 16.4 nM.

As to `C[C@H]1CC[C@H](Cn2c(N3CCOCC34CC4)nc3nc(-c4noc(=O)[nH]4)nc(-c4cccc(Cl)c4)c32)CC1` [Example 16.79, 3-[6-(3-chlorophenyl)-7-[(trans-4-methylcyclohexyl)methyl]-8-(7-oxa-4-azaspiro[2.5]oct-4-yl)-7H-purin-2-yl]-1,2,4-oxadiazol-5(4H)-one], the IC50 under setting [1] stood at 21.6 nM.

With `C[C@H]1CC[C@H](Cn2c(N3CCOC[C@H]3c3ccccc3)nc3nc(-c4noc(=O)[nH]4)nc(-c4cc(Cl)cc(Cl)c4)c32)CC1` [Example 16.19, 3-{6-(3,5-dichlorophenyl)-7-[(trans-4-methylcyclohexyl)methyl]-8-[(3R)-3-phenylmorpholin-4-yl]-7H-purin-2-yl}-1,2,4-oxadiazol-5(4H)-one], the IC50 under setting [1] was determined as 0.995 nM.

On to `C[C@@H](Nc1nc(-c2noc(=O)[nH]2)nc2nc(N3CCCC3(C)C)n(Cc3ccc(C(F)(F)F)cc3)c12)C1CCC1` [Example 9.83, 3-(6-{[(1R)-1-cyclobutylethyl]amino}-8-(2,2-dimethylpyrrolidin-1-yl)-7-[4-(trifluoromethyl)benzyl]-7H-purin-2-yl)-1,2,4-oxadiazol-5(4H)-one], for which the IC50 (Table 9) stood at 25.6 nM.

Regarding `C[C@@H]1OCCN(c2nc3nc(-c4n[nH]c(=O)o4)nc(N[C@H](C)C4CCC4)c3n2C[C@H]2CC[C@H](C)CC2)[C@@H]1c1ccccc1` [Example 11.164, 5-(6-{[(1R)-1-cyclobutylethyl]amino}-7-[(trans-4-methylcyclohexyl)methyl]-8-[(2S,3R)-2-methyl-3-phenylmorpholin-4-yl]-7H-purin-2-yl)-1,3,4-oxadiazol-2(3H)-one], for the setting “Table 11”, the IC50 was determined as 31 nM.

For `Cc1cccc(-c2nc(-c3n[nH]c(=O)o3)nc3nc(N4CCOCC4)n(C[C@H]4CC[C@H](C)CC4)c23)c1` [Example 16.3, 5-(7-(((trans)-4-methylcyclohexyl)methyl)-8-morpholino-6-(m-tolyl)-7H-purin-2-yl)-1,3,4-oxadiazol-2(3H)-one], the IC50 under setting [1] is 563 nM.

Regarding `C[C@@H](Nc1nc(C(=O)O)nc2nc(-c3cc(C4CCC4)ccn3)n(C[C@H]3CC[C@H](C)CC3)c12)C1CCC1` [Example 15.18, 6-{[(1R)-1-cyclobutylethyl]amino}-8-(4-cyclobutylpyridin-2-yl)-7-[(trans-4-methylcyclohexyl)methyl]-7H-purine-2-carboxylic acid], the IC50 under setting [1] came to 1.8 nM.

`C[C@H]1CC[C@H](Cn2c(C3(c4ccccc4)CCC3)nc3nc(-c4noc(=O)[nH]4)nc(-c4cncc(Cl)c4)c32)CC1` [Example 20.11, 3-[6-(5-chloropyridin-3-yl)-7-[(trans-4-methylcyclohexyl)methyl]-8-(1-phenylcyclobutyl)-7H-purin-2-yl]-1,2,4-oxadiazol-5(4H)-one]: the IC50 (Table 20) amounted to 3.39 nM.

Regarding `C[C@H]1CC[C@H](Cn2c(N3CCOC[C@H]3CF)nc3nc(-c4noc(=O)[nH]4)nc(-c4cccc(Cl)c4)c32)CC1` [Example 16.137, 3-{6-(3-chlorophenyl)-8-[(3S)-3-(fluoromethyl)morpholin-4-yl]-7-[(trans-4-methylcyclohexyl)methyl]-7H-purin-2-yl}-1,2,4-oxadiazol-5(4H)-one], the IC50 under setting [1] is 11.9 nM.
